In data set [1] the test system is DNA. Description: DNA damaging activity.
A further data set deals with tumor and normal cells. Nature of the data set: Toxicity to tumor versus normal cells. In kind it is cell-based. As to conditions: in vitro and in vivo. The procedure: 5×10^3 of cells were plated in 6 well plates and treated with different concentrations of drugs for 24 hours. Then fresh drug-free medium was added. Number of colonies was estimated after 5-6 days of incubation. Cell survival was estimated as a percentage of intensity of methylene blue staining of treated cells, comparing with untreated control (methylene blue from stained colonies was extracted by 0.1% of SDS and quantitated spectrophotometrically).

The test system of data set [2] is variety of tumor cell types. Nature of the data set: p53 activation and p53-dependent killing of tumor cell types. The format is cell-based. As to conditions: besides RCC.
A further data set has as its system NF-κB. Nature of the data set: NF-κB activity in tumor cells. In kind it is cell-based.
Data set [3] deals with p53 transactivation in RCC45ConALacZ cells. Nature of the data set: RCC cell-based p53-responsive reporter (ConALacZ) screening. An excerpt: Reporter cell lines with p53 responsive β-galactosidase were described in Gurova, et al. (2004). Cancer Res 64, 1951-1958. Reporter cell lines with p53 responsive luciferase was generated by transfection of p21-ConALuc plasmid with following selection on G418. Reporter cell lines with NF-κB-dependent luciferase were obtained by cotransfection of pNF-κBLuc and pEGFP-mito (Clontech) plasmids followed by selection on G418 (marker provided by pEGFP-mito plasmid). Reporter cell lines with myc, or Clock/Bmal responsive reporters were kindly provided by C. Burkhart and M. Antoch (Cleveland Clinic Foundation, OH).
2×10^4 of RCC45ConALacZ cells were plated into wells of 96 well plates in 200 μL of phenol-red free RPMI medium with standard additives. […] After 3 hours of incubation at 37° C., β-galactosidase activity was estimated by reading absorbance values Wallack 1420 plate reader (Perkin Elmer) at λ=430 nm.
For cotransfection set-up, 2×10^5 cells were plated into 6 well plates and, after overnight incubation, transfected with Lipofectamin Plus reagent (Gibco BRL) with 0.5 μg of reporter plasmids (p21-ConALuc or pNF-κBLuc) in combination with different concentrations of p53, Arf, Ss-IκB, or siHDM2 expressing plasmids. […] Luminometric and colorimetric reactions were read on the Wallack 1420 plate reader (Perkin Elmer). […]

The test system of data set [4] is DNA. As to conditions: intercalation; cited from earlier work.

Consider `Nc1c2ccccc2nc2ccccc12` [Compound 9AA, 9-aminoacridine], for which the DNA damaging activity entry in the data set on DNA [1] is “did not show DNA damaging activity”. For the same molecule, the “toxicity to tumor versus normal cells” value with tumor and normal cells is “more toxic to tumor than to normal cells”. In data set [2], the p53-dependent killing result is reported as “p53-dependent killing” and the p53 activation entry is on record as “capable of p53 activation”. Also, in the data set with NF-κB, the “effect on stimulated and basal constitutive NF-κB activity” value is “block stimulated NF-κB activity and also effectively reduce basal levels of constitutive NF-κB activity”.

With `CCN(CC)CCCC(C)Nc1c2ccc(Cl)cc2nc2ccc(OC)cc12` (stereo not drawn) [Quinacrine], the “p53 reactivation relative to doxorubicin” value in data set [3] (RCC45 cells, library of 59 derivatives of compound 30d9, fold of p53 activation over the effect of 2 μM of doxorubicin (FIG. 3B)) was “intermediate level of activity”. Moreover, the DNA damaging activity entry with DNA [1] is given as “did not show DNA damaging activity”. In the data set on tumor and normal cells, the “toxicity to tumor versus normal cells” value is “more toxic to tumor than to normal cells”. For the same molecule, in data set [2], the p53-dependent killing entry is recorded as “p53-dependent killing” and the p53 activation entry is listed as “capable of p53 activation”.

Take `Cc1c2ccncc2c(C)c2c1[nH]c1ccccc12` [ellipticine]: the “identified as p53 activator / hit in reporter screen” value in data set [3] (RCC45ConALacZ cell-based reporter assay) is given as “identified”. Further, the DNA binding affinity in the data set on DNA [4] was 10^6 M^−1.

The values above are taken from patent US20090099191A1, “INHIBITION OF NF-KB” (priority 2006, published 2009).
